According to patent publication US10179173B2, “Semi-solid delivery systems” (Regents of the University of Minnesota, priority 2012, dated 2019):

Assays:
[1] = mouse, in vivo, sc
Description: In vivo biocompatibility of the polymer was evaluated by subcutaneous injection into mice through 18-gauge needles; 50 mg of polymer was injected for each mouse. At certain time point, mouse was sacrificed and the tissue of the injection site harvested, sectioned, and stained with H&E.

[2] = Solubility of drugs in water and in the semi-solid polymer; assay type: physicochemical; details: PCL-OE-1
[3] = cited from earlier work
[4] = In vitro drug release from drug loaded semi-solid polymer in buffered saline; assay type: physicochemical
Description: A certain amount of drugs (Ibuprofen or BSA) were grinded into fine particles and then mixed with certain amount of polymer in a glass vial. […] At certain time points, the buffer was removed for analysis and replaced with fresh buffer. The amount of Ibu released in the medium was measured by UV spectroscopy (Beckman Coulter, DU 640B spectrophotometer) for absorbance at 263 nm.

solubility in the semi-solid polymer [2]	duration of sustained release of Ibu from the semi-solid polymer ([4]; 5 wt % in PCL-OE-1, pH 7.4 and pH 5.0)	effect of pH on sustained release of Ibu ([4]; pH 7.4 versus pH 5.0)	Compound	tissue damage or inflammatory response at injection site (H&E) [1]	solubility in water [3]
			poly(ortho ester caprolactone) [PCL-OE-1]	No visible tissue damage or inflammatory response	
excellent solubility	at least three	not affected by pH	CC(C)Cc1ccc(C(C)C(=O)O)cc1 (centres unmarked) [Ibu, Ibuprofen]		poor solubility in water
